Laboratory results: EP4603105A1, “PHARMACEUTICAL COMPOSITION CONTAINING CYCLIC COMPOUND HAVING SELECTIVE KRAS INHIBITORY EFFECT AGAINST HRAS AND NRAS” (CHUGAI SEIYAKU KABUSHIKI KAISHA, priority 2022, dated 2024)
Where two headings read alike, the source gives them in different places.

What was measured:
[1] = system: human lung cancer strain NCI-H441; test: NCI-H441 cell proliferation inhibitory activity (CellTiter-Glo, 4 days); type: cell-based; conditions: read-out: NCl-H441 IC50
In short: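 Signal came from […] measured per well once the reagent was added. Beforehand, cells were cultured at 37°C and 5% carbon dioxide on a compound series serially diluted in dimethyl sulfoxide.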

[2] = biological target: GDP-bound NRAS wild-type protein (Homo sapiens, UniProt P01111); test: Binding to NRAS by surface plasmon resonance (SPR), KD and KD ratio to KRAS
Chain of GDP-bound NRAS wild-type protein (P01111 whole entry): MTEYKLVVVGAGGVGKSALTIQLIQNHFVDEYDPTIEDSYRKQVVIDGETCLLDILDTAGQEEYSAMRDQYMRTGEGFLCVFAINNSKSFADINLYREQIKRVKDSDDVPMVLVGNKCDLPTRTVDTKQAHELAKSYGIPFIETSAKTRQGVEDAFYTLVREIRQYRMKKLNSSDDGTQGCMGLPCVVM
In short: (§1)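 Recombinant RAS proteins bearing a biotinylated Avi tag and loaded with GDP served as the captured ligand, recaptured fresh every cycle. Binding responses were referenced to an uncoated surface and a buffer-only blank cycle. Dissociation constants were obtained by 1:1 model fitting at 30°C.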

[3] = biological target: GDP-bound KRAS wild-type protein (Homo sapiens, UniProt P01116); test: Binding to KRAS by surface plasmon resonance (SPR), dissociation constant KD
Chain of GDP-bound KRAS wild-type protein (P01116 1-188 isoform P01116-2): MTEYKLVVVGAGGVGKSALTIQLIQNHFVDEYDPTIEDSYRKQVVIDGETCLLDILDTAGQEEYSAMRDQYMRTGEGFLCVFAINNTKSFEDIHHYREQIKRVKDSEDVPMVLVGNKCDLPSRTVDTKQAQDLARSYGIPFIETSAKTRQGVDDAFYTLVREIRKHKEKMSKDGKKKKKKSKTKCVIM
In short: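 Captured GDP-RAS (~100–300 RU) was exposed to increasing compound concentrations, 75 s per step, in running buffer with 10 µM GDP, 10 mM MgCl2 and 4% DMSO at pH 7.4.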

[4] = biological target: HRAS wild-type protein (Homo sapiens, UniProt P01112); test: Binding to HRAS by surface plasmon resonance (SPR), KD and KD ratio to KRAS
Chain of HRAS wild-type protein (P01112 whole entry): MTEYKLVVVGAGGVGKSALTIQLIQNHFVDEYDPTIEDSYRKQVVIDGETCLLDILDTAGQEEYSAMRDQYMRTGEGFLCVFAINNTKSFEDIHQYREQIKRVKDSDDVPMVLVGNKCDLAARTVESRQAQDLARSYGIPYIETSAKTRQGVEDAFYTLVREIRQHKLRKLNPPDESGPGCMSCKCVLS
In short: as §1

[5] = 50% proliferation inhibitory concentration, four days
[6] = ratio of KD with respect to GDP-bound NRAS wild-type protein to KD with respect to KRAS
[7] = Single Cycle Kinetics, 1:1 binding model
[8] = ratio of KD with respect to HRAS wild-type protein to KD with respect to KRAS
[9] = ratio of KD for GDP-bound NRAS wild-type protein to KD for KRAS
[10] = ratio of KD for HRAS wild-type protein to KD for KRAS

SMILES | IC50 [1, 5] [nM] | NRAS /KRAS [2, 6] | Kd [3, 7] [nM] | HRAS /KRAS [4, 8] | IC50 ([1]; NCI-H441 cells, 4 days) [nM] | NRAS /KRAS [2, 9] | Kd ([3]; Single Cycle Kinetics) [nM] | HRAS /KRAS [4, 10] | Kd ([3]; 1:1 binding model) [nM]
CCO[C@@H]1C[C@H]2C(=O)NC3(CCCC3)C(=O)N(C)[C@@H](C3CCCC3)C(=O)N(C)[C@H](C(=O)N3CCOCC3)CC(=O)N(C)[C@@H](CC)C(=O)N[C@@H]([C@@H](C)CC)C(=O)N(C)CC(=O)N(C)[C@H]3CC[C@@H](C)CN(C3=O)[C@@H](Cc3ccc(C(F)(F)F)cc3)C(=O)N(C)CC(=O)N[C@@H](CCc3cc(F)c(C(F)(F)F)c(F)c3)C(=O)N2C1 [PP1371] | 5.1 | A (a compound having 10 or more and less than 20 is denoted as A) | 0.077 | B (a compound having 3 or more and less than 10 is denoted as B) | – | – | – | – | –
CCCC[C@@H]1NC(=O)C[C@@H](C(=O)N(C)C)N(C)C(=O)[C@H](C2CCCC2)N(C)C(=O)C2(CC(C)(C)C2)NC(=O)[C@@H]2C[C@@H](OCC)CN2C(=O)[C@H](CCc2cc(F)c(C(F)(F)F)c(F)c2)NC(=O)CN(C)C(=O)[C@H](Cc2ccc(C(F)(F)F)cc2)N2CC/C=C\C[C@@H](C2=O)N(C)C(=O)CN(C)C(=O)[C@H]([C@@H](C)CC)NC1=O [PP3456] | – | – | – | – | 16.4 | A (a compound having 10 or more and less than 20 is denoted as A) | 0.2 | A (a compound having 10 or more and less than 20 is denoted as A) | –
CC[C@H](C)[C@@H]1NC(=O)[C@H](CC)N(C)C(=O)C[C@@H](C(=O)N(C)C)N(C)C(=O)[C@H](C2CCCC2)N(C)C(=O)C2(CCC2)NC(=O)[C@@H]2C[C@H](C)CN2C(=O)[C@H](CCc2cc(F)c(C(F)(F)F)c(F)c2)NC(=O)CN(C)C(=O)[C@H](CC2CCC(F)(F)CC2)N2CC/C=C\C[C@@H](C2=O)N(C)C(=O)CN(C)C1=O [PP1457] | 30.4 | A (a compound having 10 or more and less than 20 is denoted as A) | 0.15 | A (a compound having 10 or more and less than 20 is denoted as A) | – | – | – | – | –
CCOC[C@H]1C(=O)N[C@@H]([C@@H](C)CC)C(=O)N(C)CC(=O)N(C)[C@H]2C/C=C\CCN(C2=O)[C@@H](Cc2ccc(C(F)(F)F)cc2)C(=O)N(C)CC(=O)N[C@@H](CCc2ccc(Cl)c(Cl)c2)C(=O)N2C[C@H](OCC)C[C@H]2C(=O)NC2(CC(C)(C)C2)C(=O)N(C)[C@@H](CC(C)(C)C)C(=O)N(C)[C@H](C(=O)N(C)C)CC(=O)N1C [PP2740] | – | – | – | – | 24.2 | AA (a compound having 20 or more is denoted as AA) | – | A (a compound having 10 or more and less than 20 is denoted as A) | 0.17
CCCO[C@@H]1C[C@H]2C(=O)NC3(CC(C)(C)C3)C(=O)N(C)[C@@H](C3CCCC3)C(=O)N(C)[C@H](C(=O)N(C)CC)CC(=O)N[C@@H](COCC)C(=O)N[C@@H]([C@@H](C)CC)C(=O)N(C3CC3)CC(=O)N(C)[C@H]3C/C=C\CCN(C3=O)[C@@H](Cc3ccc(C)cc3)C(=O)N(C)CC(=O)N[C@@H](CCc3cc(F)c(C(F)(F)F)c(F)c3)C(=O)N2C1 [PP3421] | – | – | – | – | 67 | A (a compound having 10 or more and less than 20 is denoted as A) | 1.9 | A (a compound having 10 or more and less than 20 is denoted as A) | –
CCO[C@@H]1C[C@H]2C(=O)NC3(CCC3)C(=O)N(C)[C@@H](C(CC)CC)C(=O)N(C)[C@H](C(=O)N(C)C)CC(=O)N(C)[C@@H](CC3CC3)C(=O)N[C@@H]([C@@H](C)CC)C(=O)N(C)CC(=O)N(C)[C@H]3C/C=C\CCN(C3=O)[C@@H](Cc3ccc(C(F)(F)F)cc3)C(=O)N(C)CC(=O)N[C@@H](CCc3ccc(Cl)c(Cl)c3)C(=O)N2C1 [PP1219] | 21.4 | AA (a compound having 20 or more is denoted as AA) | 0.35 | A (a compound having 10 or more and less than 20 is denoted as A) | – | – | – | – | –
CCC[C@H]1C(=O)N[C@@H](C23CC(C2)C3)C(=O)N2CCC[C@H]2C(=O)N(C)[C@H]2C/C=C\CCN(C2=O)[C@@H](Cc2ccc(C)cc2)C(=O)N(C)CC(=O)N[C@@H](CCc2ccc(C(F)(F)F)c(OC)c2)C(=O)N2C[C@H](OCC)C[C@H]2C(=O)N(C)C2(CCC2)C(=O)N(C)[C@@H](C2CCCC2)C(=O)N(C)[C@H](C(=O)N(C)C)CC(=O)N1C [PP3342] | – | – | – | – | 22.8 | A (a compound having 10 or more and less than 20 is denoted as A) | 1.8 | A (a compound having 10 or more and less than 20 is denoted as A) | –
CCCN1CC(=O)N(C)[C@H]2C/C=C\CCN(C2=O)[C@@H](Cc2ccc(C(F)F)cc2)C(=O)N(C)CC(=O)N[C@@H](CCc2cc(F)c(C(F)(F)F)c(F)c2)C(=O)N2C[C@H](OC(C)C)C[C@H]2C(=O)N(C)C2(CCC2)C(=O)N(C)[C@@H](C(CC)CC)C(=O)N(C)[C@H](C(=O)N(C)C)CC(=O)N(C)[C@@H](CC(F)F)C(=O)N[C@@H](C2CCCC2)C1=O [PP3497] | – | – | – | – | 21.2 | A (a compound having 10 or more and less than 20 is denoted as A) | 0.74 | A (a compound having 10 or more and less than 20 is denoted as A) | –
